Data from patent US20240016924A1, “NEW ADJUVANT TO IMPROVE THE INNATE IMMUNITY” (INSTITUT NATIONAL DE LA SANTÉ ET DE LA RECHERCHE MÉDICALE, priority 2020, published 2024).

Columns and labels:
primary HNECs = assay: Signaling inhibitors on P1-induced TSLP expression; assay type: cell-based, human
Protocol: The expression of short and long form TSLP was quantified as described (Bjerkan, Schreurs et al. 2015, Dong, Hu et al. 2016). Briefly, total RNA was extracted using Trizol. Five hundred nanograms of RNA were treated with ezDNase Enzyme (Thermo Fisher) to remove genomic DNA, and reverse transcribed into cDNA using the kit SuperScript IV VILO Master Mix according to manufacturer instructions (Thermo Fisher). Quantitative PCR was performed using reported primers (Dong, Hu et al. 2016) and the PowerUp SYBR Green Master Mix according to manufacturer instructions (Thermo Fisher). Reactions were performed in triplicates, with glyceraldehyde-3-phosphate dehydrogenase (GAPDH) as the internal control. Amplification, data acquisition, and analysis were carried out using the LightCycler 480 Software (Roche, Mannheim, Germany). The levels of TSLP mRNA were normalized to the levels of GAPDH using the ΔCt method (Schmittgen and Livak 2008) and were presented as 2-ΔCt values.
Signaling inhibitors Confluent HNEC cells in 24-well plate were pre-incubated with inhibitors for 1 h at 37° C. prior to P1 treatment. Inhibitors, namely dexamethasone (Dex) a NF-kB and MAPK inhibitor (used at 100 nM), and Cyclosporin A (CsA) a Calcineurin Inhibitor (used at 1.5 μM), were from Invivogen and used at the manufacturer's recommended concentrations. […]

RPMI 2650 cells = assay: TSLP secretion in nasal RPMI 2650 cell culture supernatants (ELISA); assay type: cell-based, human
Protocol: Nasal RPMI 2650 cells (isolated from the human nasal septum, squamous cell carcinoma, ATCC) were grown in MEMα (Minimum Essential Medium α, Thermo Fisher) supplemented with 10% fetal calf serum (FCS, Eurobio, Courtaboeuf, France) and 1% penicillin/streptomycin.
(§1) TSLP, IL-25/IL-17E, IL-33, IFN-γ, IL-10, IL-12/23p40, IL-4, IL-5, IL-6, IL-13, TNF-α, MMP-9, IL-8/CXCL8, […], MDC/CCL22, TARC/CCL17, APRIL and BAFF were measured in culture supernatants from indicated experiments with custom multiplex Luminex assays (Bio-techne) according to the manufacturer's instructions. Additionally, when indicated TSLP was measured in culture supernatants by enzyme-linked immunosorbent assay (ELISA) with a limit of detection of 8 pg/ml (Thermo Fisher) according to the manufacturer's instructions.
We first investigate whether P1 induced TSLP secretion in nasal epithelium. Therefore, we cultured human nasal epithelial cells (RPMI 2650) with P1 Glade B for 2-24 hours at 37° C. and analyzed the culture supernatants for TSLP secretion.

nasal RPMI cells [1] = assay: Cytokines and chemokines quantification (Luminex), nasal RPMI cells; assay type: cell-based, human; conditions: 125 μM, 24 hrs
Protocol: as §1
We next investigated whether, in addition to TSLP, P1 could stimulate epithelial secretion of additional immune factors prone to attract antigen presenting cells (APCs). […] Together with TSLP (Zhou, Xu et al. 2018), this set of immune factors could facilitate recruitment of APCs to the mucosal surface for initiation of an immune response, since CCL20 and CCL2 chemo-attract macrophages and immature dendritic cells (DCs), and MMP-9 degrades the extracellular matrix and facilitates the migration of immune cells in or out the epithelium. Treg cells have IgA-inducing functions and require RA, TGF-b1, IL-10, and TSLP from intestinal epithelial cells and DCs. So, we assumed IL-10 released from either EC or DC may contribute to IgA class switching (Gutzeit, Magri, et al. 2014).

primary HNEC cells = assay: Calcium measurement (Fura-2/AM), primary HNEC cells; assay type: cell-based, human; conditions: P1 125 μM vs 2511M, controls at 125 μM, n=3
Protocol: (§2) 70-80% confluent RPMI 2650 or HNEC cells in 24-well plate were loaded with […] Fura-2/AM (Molecular Probes) in basal medium without serum/growth factors for 1 hour at 37° C. Cells were washed twice with mammalian saline (Conche, Boulla et al. 2009) and measurements were performed in complete medium supplied with HEPS (10 mM) and CaCl2 (2 mM) as described add (Conche, Boulla et al. 2009). Images were acquired with an inverted fluorescence microscope (Observer Z1, Zeiss, Germany) and analyzed with MetaMorph software (Guichard, Bonilla et al. 2017) Calcium was measured every 5 seconds by video fluorescence imaging. Results were expressed as 340 nm to 380 nm fluorescence ratio and normalized to the baseline, i.e. ratio at time zero was set as 1.

autologous CD4+ T cells = assay: DC-T co-cultures, CD4+ T cell proliferation (CFSE); assay type: cell-based, human; conditions: peptide-primed eduDCs, 125 μM, 5 days, DC/T 1:5
Protocol: Autologous CD4+ T cells were purified from PMBCs by negative selection according to manufacturer instructions (StemCell Technologies, France) (purity>95%)
DCs and confluent ECs were co-cultured overnight as described above, and DC-EC or eduDC was further incubated with P1 (clade B, 125 μM) or medium for 24 h. Then, DCs were separated and incubated with autologous CD4+ T cells pre-labeled with CFSE (Thermo Fisher) according to the manufacturer's instructions, at a ratio of 1:5 (DC/T). After 5 days of culture, CD4+ T cell proliferation was analyzed by flow cytometry as described (Yeh, Yeh et al. 2013, Qin, Yin et al. 2015) using Phytohaemagglutinin (PHA) (5 μg/mL) as positive control.

nasal RPMI cells [2] = assay: Calcium measurement (Fura-2/AM), nasal RPMI cells; assay type: cell-based, human; conditions: P1 125 μM vs 2511M, controls at 125 μM, n=3
Protocol: as §2

[3] = intranasal immunization, gp140 antigen; Van Roey, Arias et al. 2012; cited from earlier work
[4] = tested on: CD8-depleted PBMCs cocultured with RPMI 2650 cells; assay: In vitro immunization assay with ovalbumin; assay type: cell-based, human; conditions: OVA alone 10 μg/mL, no adjuvant
Protocol: In vitro immunization assay was performed as reported (Jung, Matsumoto et al. 2007) with modifications. Briefly, 1×10^6 CD8-depleted PBMCs (Human CD8 Depletion Cocktail, StemCell Technologies, France) were cocultured for 24 hrs with RPMI 2650 cells ([…]) pre-seeded in 48 well plates for 48 hrs. Then, ovalbumin (OVA, EndoFit Ovalbumin, 10 µg/mL, Invivogen) alone, OVA together with P1 (5 μM, 25 μM, 125 μM), OVA together with P1 mutant (P1mut, 125 μM), or medium were added to in RPMI 1640 medium supplemented with Non-Essential Amino Acids (NEAA solution, Thermo Fisher), IL-4 ([…]), IL-2 (10 UI/mL) and 2-mercaptoethanol (20 μM) for 7 days.
For the detection of OVA-specific B cells, at indicated time of culture, PMBCs were surface stained with ovalbumin conjugated to fluorescein (OVA-FITC, 20 ug/mL, Thermo), PE-conjugated mouse anti-human CD20 (BD Biosciences, CA, USA), APC-conjugated goat anti-human IgA or donkey anti-human IgG (Jackson ImmunoResearch, PA, USA) as indicated by the manufacturer. Specific labeling was quantified by flow cytometry with a Guava EasyCyte flow cytometer (Merck-Millipore), and analyzed with the dedicated InCyte software, using the following strategy: CD20+ B cells were first gated and cell double positive for OVA-FITC+ and APC-conjugated anti-IgA or anti-IgG were determined as OVA-IgA or IgG-specific B-cell s.
In vitro immunization assays have been used to produce specific monoclonal antibodies using a defined antigen complemented with an adjuvant (Borrebaeck, Danielsson et al. 1987). Here, we establish a mucosal immunization model adapted from (Jung, Matsumoto et al. 2007, Yeh, Yeh et al. 2013, Wijkhuisen, Savatier et al. 2016) and using mucosal DCs based on our results presented above. OVA was selected as the model antigen. Therefore, human CD8-depleted PBMCs (n=5 independent donors) were cocultured with RPMI 2650 cells for one day to educate DCs, and prior to addition of either medium, OVA, OVA plus P1 mutant (P1mut, 125 μM) or OVA plus P1 (5 μM, 25 μM, 125 μM) for seven more days. OVA-specific B cells were quantified by flow cytometry using FITC-conjugated OVA and anti-CD2O-PE to gate on OVA-specific B cells. The Ig isotype of surface B cell receptor (BCR) was next characterized by APC-conjugated anti-human-IgA or anti-human-IgG. […] Similar results were obtained when B cells were stained with anti-CD19-PE.

Molecule: CC(C)CC(=O)N1CCN(C(=O)CCCCCN)CC1 [ENMD-1068]
- reduction of P1-induced TSLP expression (primary HNECs; 1 h pre-treatment before P1, CsA 1.5 μM, ENMD-1068 500 μg/mL, n=3): 46±24%
- P1-induced up-regulation of miR-4485-3p (primary HNECs; inhibitor pre-treatment before P1): blocked the up-regulation of miR-4485-3p

Molecule: SQIQQKKNEQDLLALDKWANLWNWFDISNWLWYIR (Synthetic P1 clade A) [P1 Glade A]
- Reduction of TSLP secretion compared to clade B P1 (RPMI 2650 cells; 125 uM, p<0.05, n=5): 20%
- Secretion of TSLP (RPMI 2650 cells; peptide at 125 uM, 4 hours, n=5): 41.8 ± 2.6 pg/mL

Molecule: SQTQQEKNEQELLALDSWKNLWNWFSITNWLWYIK [P1 Glade C]
- Induction of TSLP secretion by P1 variants (RPMI 2650 cells; RPMI nasal cells, 4 hours): failed to induce TSLP secretion
- secretion of MMP-9, CCL20, CCL2 and IL-10 (nasal RPMI cells [1]): unable to stimulate significant MMP-9, CCL-20 CCL2 or IL-10 production
- extracellular calcium influx (340/380 nm ratio) (primary HNEC cells): fails to raise the calcium level significantly
- proliferation of autologous CD4+ T cells (autologous CD4+ T cells): has no effect
- extracellular calcium influx (340/380 nm ratio) (nasal RPMI cells [2]): fails to raise the calcium level significantly

Molecule: Thymic stromal lymphopoietin [TSLP]
- humoral response as mucosal adjuvant [3]: induced a strong humoral response both in serum and at genital level

B1: ovalbumin (protein, UniProt P01012 2-386, looked up)
Ovalbumin: GSIGAASMEFCFDVFKELKVHHANENIFYCPIAIMSALAMVYLGAKDSTRTQINKVVRFDKLPGFGDSIEAQCGTSVNVHSSLRDILNQITKPNDVYSFSLASRLYAEERYPILPEYLQCVKELYRGGLEPINFQTAADQARELINSWVESQTNGIIRNVLQPSSVDSQTAMVLVNAIVFKGLWEKAFKDEDTQAMPFRVTEQESKPVQMMYQIGLFRVASMASEKMKILELPFASGTMSMLVLLPDEVSGLEQLESIINFEKLTEWTSSNVMEERKIKVYLPRMKMEEKYNLTSVLMAMGITDVFSSSANLSGISSAESLKISQAVHAAHAEINEAGREVVGSAEAGVDAASVSEEFRADHPFLFCIKHIATNAVLFFGRCVSP
notes: model antigen, EndoFit Ovalbumin, Invivogen
- induction of OVA-specific B cells [4]: failed to induce OVA-specific specific B cells
